Patent US20250230193A1, “CYCLIC COMPOUND HAVING SELECTIVE KRAS INHIBITORY EFFECT ON HRAS AND NRAS” (CHUGAI SEIYAKU KABUSHIKI KAISHA, priority 2022, published 2025)
*1 amine or outer side, *2 acyl side, *3 side chain or, on linkers, in order; H or OH if unused. Where a SMILES comes first, the peptide text is derived from it. Bridges are numbered along the chain shown (N, C = ends). [ ]: non-standard residue; d: D form. The star is where a group is joined. hPhe(3,5-F2-4-CF3) = N[C@@H](CCc1cc(F)c(C(F)(F)F)c(F)c1)C(=O)O; hPhe(3-Cl-4-CF3) = N[C@@H](CCc1ccc(C(F)(F)F)c(Cl)c1)C(=O)O; NPrPhe(4-CF3) = CCCN[C@@H](Cc1ccc(C(F)(F)F)cc1)C(=O)O; NMeGly(cPent) = CN[C@H](C(=O)O)C1CCCC1; Pro(4,4-F2) = O=C(O)[C@@H]1CC(F)(F)CN1; X9 = C[C@@](N[*:1])(C(=O)[*:2])C1CC1; X13 = CCC[C@](C)(N[*:1])C(=O)[*:2]; NMeD = CN[C@@H](CC(=O)O)C(=O)O; NMeL = CN[C@@H](CC(C)C)C(=O)O; Morpholide = C1CN(*)CCO1; Aze = O=C(O)[C@@H]1CCN1; Ac4c = NC1(C(=O)O)CCC1; NEtG = CCNCC(=O)O; Sar = CNCC(=O)O

How the values were obtained:
[1] = biological target: GDP-bound HRAS wild-type protein (Homo sapiens, UniProt P01112); assay: Binding to HRAS by surface plasmon resonance (SPR), Single Cycle Kinetics
[2] = biological target: GDP-bound NRAS wild-type protein (Homo sapiens, UniProt P01111); assay: Binding to NRAS by surface plasmon resonance (SPR), Single Cycle Kinetics
[3] = SPR, GDP-bound HRAS wild-type vs GDP-bound KRAS wild-type
[4] = SPR, GDP-bound NRAS wild-type vs GDP-bound KRAS wild-type

GDP-bound HRAS wild-type protein, sequence (P01112 whole entry): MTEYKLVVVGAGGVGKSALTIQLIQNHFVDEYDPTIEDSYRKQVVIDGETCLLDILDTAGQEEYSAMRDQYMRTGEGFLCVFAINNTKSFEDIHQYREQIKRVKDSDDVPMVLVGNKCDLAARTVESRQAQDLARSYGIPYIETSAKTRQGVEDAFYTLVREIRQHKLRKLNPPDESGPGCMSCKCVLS
GDP-bound NRAS wild-type protein, sequence (P01111 whole entry): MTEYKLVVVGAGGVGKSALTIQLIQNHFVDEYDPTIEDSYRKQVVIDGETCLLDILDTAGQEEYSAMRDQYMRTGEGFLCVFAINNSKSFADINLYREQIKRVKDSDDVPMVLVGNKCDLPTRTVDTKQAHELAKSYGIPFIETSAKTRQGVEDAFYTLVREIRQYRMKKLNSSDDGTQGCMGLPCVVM

Structure (SMILES): CCC[C@H]1C(=O)N[C@@H]([C@@H](C)CC)C(=O)N(C2CC2)CC(=O)N(C)[C@H]2C/C=C\CCN(C2=O)[C@@H](CC2CCC(F)(F)CC2)C(=O)N(C)CC(=O)N[C@@H](CCc2ccc(Cl)c(Cl)c2)C(=O)N2C[C@H](OCC)C[C@H]2C(=O)NC2(CC(C)(C)C2)C(=O)N(C)[C@@H](C2CCCC2)C(=O)N(C)[C@H](C(=O)N(C)C)CC(=O)N1C [PP2567]
- HRAS/KRAS (ratio of KD value with respect to GDP-bound HRAS wild-type protein to KD value with respect to KRAS) ([1]; KD ratio HRAS/KRAS, class symbols): A (a compound having 10 or more and less than 20 is denoted as A)
- NRAS/KRAS (ratio of KD value with respect to GDP-bound NRAS wild-type protein to KD value with respect to KRAS) ([2]; KD ratio NRAS/KRAS, class symbols): A (a compound having 10 or more and less than 20 is denoted as A)

Structure (SMILES): CCCN1C(=O)CN(C)C(=O)CNC(=O)[C@H]([C@@H](C)CC)NC(=O)[C@H](CC(C)C)N(C)C(=O)C[C@@H](C(=O)N2CCOCC2)N(C)C(=O)[C@H](C2CCCC2)N(C)C(=O)C2(CCC2)NC(=O)[C@@H]2CC(F)(F)CN2C(=O)[C@H](CCc2ccc(C(F)(F)F)c(Cl)c2)NC(=O)CN(C)C(=O)[C@@H]1Cc1ccc(C(F)(F)F)cc1 [PP0395] ([NMeL]IG[Sar][NPrPhe(4-CF3)][Sar][hPhe(3-Cl-4-CF3)][Pro(4,4-F2)][Ac4c][NMeGly(cPent)][NMeD]-Morpholide; lactam N-11)
- HRAS/KRAS (ratio of KD for GDP-bound HRAS wild-type to KD for KRAS) ([1]; KD ratio HRAS/KRAS, SPR): C (A compound having a KD ratio of 0.1 or more and less than 3 is denoted as C)
- NRAS/KRAS (ratio of KD for GDP-bound NRAS wild-type to KD for KRAS) ([2]; KD ratio NRAS/KRAS, SPR): B (a compound having 3 or more and less than 10 is denoted as B)

Structure (SMILES): CCC[C@@H]1C[C@H]2C(=O)NC3(CC(C)(C)C3)C(=O)N(C)[C@@H](C3CCCC3)C(=O)N(C)[C@H](C(=O)N(C)C)CC(=O)N(C)[C@@H](C)C(=O)N[C@@H]([C@@H](C)CC)C(=O)N(C)CC(=O)N(C)[C@H]3C/C=C\CCN(C3=O)[C@@H](Cc3ccc(C(F)(F)F)cc3)C(=O)N(C)CC(=O)N[C@@H](CCc3cc(F)c(C(F)(F)F)c(F)c3)C(=O)N2C1 [PP2273]
- HRAS/KRAS (ratio of KD value with respect to HRAS to KD value with respect to KRAS) [1, 3]: A (a compound having 10 or more and less than 20 is denoted as A)
- NRAS/KRAS (ratio of KD value with respect to NRAS to KD value with respect to KRAS) [2, 4]: AA (a compound having 20 or more is denoted as AA)

Structure (SMILES): CCCN1C(=O)CN(C)C(=O)[C@@H]2CCN2C(=O)[C@H]([C@@H](C)CC)NC(=O)[C@H](CC(C)C)N(C)C(=O)C[C@@H](C(=O)N2CCOCC2)N(C)C(=O)[C@H](C2CCCC2)N(C)C(=O)[C@](C)(CCC)NC(=O)[C@@H]2CCCN2C(=O)[C@H](CCc2cc(F)c(C(F)(F)F)c(F)c2)NC(=O)CN(C)C(=O)[C@@H]1Cc1ccc(C(F)(F)F)cc1 [PP0775] ([NMeL]I[Aze][Sar][NPrPhe(4-CF3)][Sar][hPhe(3,5-F2-4-CF3)]P[X13][NMeGly(cPent)][NMeD]-Morpholide; lactam N-11)
- HRAS/KRAS (ratio of KD value with respect to GDP-bound HRAS wild-type protein to KD value with respect to KRAS) ([1]; KD ratio HRAS/KRAS, SPR): B (a compound having 3 or more and less than 10 is denoted as B)
- NRAS/KRAS (ratio of KD value with respect to GDP-bound NRAS wild-type protein to KD value with respect to KRAS) ([2]; KD ratio NRAS/KRAS, SPR): B (a compound having 3 or more and less than 10 is denoted as B)

Structure (SMILES): CCO[C@H](C)[C@@H]1NC(=O)[C@H](CC(C)C)N(C)C(=O)C[C@@H](C(=O)N(C)C)N(C)C(=O)[C@H](C2CCCC2)N(C)C(=O)C2(CC(C)(C)C2)NC(=O)[C@@H]2C[C@H](C)CN2C(=O)[C@H](CCc2ccc(C(F)(F)F)c(OC)c2)NC(=O)CN(C)C(=O)[C@H](Cc2ccc(C)cc2)N2CC/C=C\C[C@@H](C2=O)N(C)C(=O)CN(C)C1=O [PP2412]
- HRAS/KRAS (ratio of KD value with respect to HRAS to KD value with respect to KRAS) [1, 3]: B (a compound having 3 or more and less than 10 is denoted as B)
- NRAS/KRAS (ratio of KD value with respect to NRAS to KD value with respect to KRAS) [2, 4]: A (a compound having 10 or more and less than 20 is denoted as A)

Structure (SMILES): CCCN1C(=O)CN(C)C(=O)CN(C)C(=O)[C@H]([C@@H](C)CC)NC(=O)[C@H](CC(C)C)N(C)C(=O)C[C@@H](C(=O)N(C)C)N(C)C(=O)[C@H](C2CCCC2)N(C)C(=O)[C@](C)(C2CC2)NC(=O)[C@@H]2CCCN2C(=O)[C@H](CCc2cc(F)c(C(F)(F)F)c(F)c2)NC(=O)CN(C)C(=O)[C@@H]1Cc1ccc(C(F)(F)F)cc1 [PP0734] ([NMeL]I[Sar][Sar][NPrPhe(4-CF3)][Sar][hPhe(3,5-F2-4-CF3)]P[X9][NMeGly(cPent)][NMeD]-NMe2; lactam N-11)
- HRAS/KRAS (ratio of KD value with respect to GDP-bound HRAS wild-type protein to KD value with respect to KRAS) ([1]; KD ratio HRAS/KRAS, SPR): C (A compound having a KD ratio of 0.1 or more and less than 3 is denoted as C)
- NRAS/KRAS (ratio of KD value with respect to GDP-bound NRAS wild-type protein to KD value with respect to KRAS) ([2]; KD ratio NRAS/KRAS, SPR): B (a compound having 3 or more and less than 10 is denoted as B)

Structure (SMILES): CCCN1C(=O)CN(CC)C(=O)CN(C)C(=O)[C@H]([C@@H](C)CC)NC(=O)[C@H](CC(C)C)N(C)C(=O)C[C@@H](C(=O)N2CCOCC2)N(C)C(=O)[C@H](C2CCCC2)N(C)C(=O)C2(CCC2)NC(=O)[C@@H]2CCCN2C(=O)[C@H](CCc2ccc(C(F)(F)F)c(Cl)c2)NC(=O)CN(C)C(=O)[C@@H]1Cc1ccc(C(F)(F)F)cc1 [PP1948] ([NMeL]I[Sar][NEtG][NPrPhe(4-CF3)][Sar][hPhe(3-Cl-4-CF3)]P[Ac4c][NMeGly(cPent)][NMeD]-Morpholide; lactam N-11)
- HRAS/KRAS (ratio of KD value for HRAS to KD value for KRAS) ([1]; KD ratio, GDP-bound HRAS wild-type vs GDP-bound KRAS wild-type, SPR): C (A compound having a KD ratio of 0.1 or more and less than 3 is denoted as C)
- NRAS/KRAS (ratio of KD value for NRAS to KD value for KRAS) ([2]; KD ratio, GDP-bound NRAS wild-type vs GDP-bound KRAS wild-type, SPR): C (A compound having a KD ratio of 0.1 or more and less than 3 is denoted as C)
